These results are taken from a melting point compilation (Tetko et al.; mined from patent text by program, amines drawn as free bases though some values may be those of a salt).

Molecules are shown by their SMILES. Where only a bound is given, the exact number is not on record here.

Broadly, the melting point is the temperature of the solid-liquid transition.

Consider `O=S(=O)(Nc1ccc2c(OCc3ccc(I)cc3)cccc2c1)C(F)(F)F`, for which the melting point lay in the range of 120 to 122 °C.

For the compound `Nc1nccc(OCCc2ccccc2)c1[N+](=O)[O-]`, the melting point lay within 131 to 132 °C.

With `Cc1cccc2sc(Sc3ccc4c(c3)CC[C@H]3N(C)C(=O)CC[C@]43C)nc12`, the melting point fell in the range of 134 to 142 °C.

For `O=C1COC(=O)c2ccccc2N1`, the melting point was in the range of 200 to 201 °C.

The compound `c1ccc(Sc2cc(-c3ccccc3)n[nH]2)cc1` returned a melting point of 99 to 100 °C.

On to `COc1ccccc1-c1cn([C@H]2CN3CCC2CC3)nn1`, for which the melting point stood at 120 °C.

`Nc1nnc(-c2ccccc2OC(F)(F)C(F)F)c(N)n1` showed a melting point of 158 to 160 °C.

Turning to `CC(=O)c1ccc2c(c1)[C@@H](O)[C@H](Br)C(C)(C)O2` (relative stereo), the melting point was 84 to 86 °C.

Turning to `O=C(O)c1ccc(OCCCc2ccc(OCCCCOc3ccccc3)cc2)c(C(=O)N2CCC(C(=O)O)CC2)c1`, the melting point lay within 142 to 143 °C.

In the case of `O=C(NCc1ccc(Cl)cc1)c1cn2c3c(cc(CN4CCOCC4)cc3c1=O)OC(c1ccc(O)cc1)C2` (configuration not stated), the melting point is > 260 °C.

Consider `O=C(O)[C@]1(c2ccc(Br)cc2)CC1(c1ccccc1)c1ccccc1`, for which the melting point lay within 180 to 182 °C.

As to `CC(=O)Oc1cc(N(C)C2CCCCC2)c2ccccc2c1OC(C)=O`, the melting point lay in the range of 103 to 105 °C.

Consider `C=CCc1cc(C=CNC(=O)OC)ccc1OCC(O)CNC(C)C` (configuration not stated), for which the melting point lay within 128 to 129 °C.

`CCOC(=O)c1nc2c(C(=O)OCC)cccn2c1[N+](=O)[O-]`: the melting point was in the range of 139 to 140 °C.

In turn, `CC(C)(C)N1OC(c2ccccc2)(N2CCOCC2)c2cc(Cl)ccc21` (configuration not stated) gave a melting point of 130 to 132 °C.

In the case of `O=C1Nc2ccccc2C12COc1ccc(Br)cc12` (configuration not stated), the melting point was 225 to 228 °C.

On to `O=C1NC(=O)C2(CCCCC2)N1c1cccnc1`, for which the melting point was 264 to 266 °C.

Turning to `Cc1ccc(NC(=O)c2ccc(C[N+]3([O-])CC[N+](C)([O-])CC3)cc2)cc1Nc1nccc(-c2cccnc2)n1` (configuration not stated), the melting point fell in the range of 242 to 244 °C.

As for `COC[C@H]1CCCN1NC(=O)Nc1cccc2c1C(=O)c1c-2n[nH]c1-c1ccc(C(=O)N2CCNCC2)s1`, the melting point is > 300 °C.

As to `O=S(=O)(c1ccccc1)n1c(C(O)c2ccoc2)cc2ccncc21` (configuration not stated), the melting point is 168 to 171 °C.

As for `CCCc1c(OCCCCCCc2cccc(OCCCCCC(=O)O)c2CCC(=O)O)ccc2c1OCCC2=O`, the melting point was in the range of 86 to 88 °C.

`COc1cc2c(cc1OCc1ccccc1)CCN(C(=O)c1cc(OC)c(OC)c(OC)c1)C2`: the melting point was 63 to 64 °C.

In the case of `COc1ccc2ccc(C(N)=O)c(OC(C)C)c2c1`, the melting point is 172 to 174 °C.

As for `COC(=O)C1=C(COCCn2c(C)nc(C)c2C)Nc2c(c(=O)n(C)c(=O)n2C)C1c1ccccc1Cl` (configuration not stated), the melting point lay in the range of 226 to 228 °C.

For `CCC1(C)Oc2cccc(O)c2O1` (configuration not stated), the melting point lay in the range of 48 to 50 °C.

Regarding `CCC(CC)c1ccc(Cl)c2nc3n(c12)CCN3c1ccc(Br)cc1Cl`, the melting point lay in the range of 165 to 168 °C.

As to `O=C1[C@H]2CCC[C@H]2N(C(=O)CNCc2ccccc2)c2ccccc2N1Cc1ccccc1` (relative stereo), the melting point was in the range of 95 to 98 °C.

As to `O=c1cc(-c2ccccc2)n(-c2ccccc2Cl)c(-c2ccccc2)c1Cl`, the melting point lay in the range of 230 to 233 °C.

`CC(=O)c1ccc2c(c1)C1(c3ccccc3-c3ccccc31)c1ccccc1-2`: the melting point is 225 °C.

`CN(C)CCCNC(=O)c1cccc([N+](=O)[O-])c1Cl` had a melting point of 122 to 125 °C.

In the case of `Nc1ncnc2nc(-c3cccc(Cl)c3)cnc12`, the melting point fell in the range of 260 to 264 °C.

Compound `CSC1C2=C(CCCC2)C(=O)N1c1ccc(Cl)cc1F` (configuration not stated) came in with a melting point of 97 to 98 °C.

`O=C(C1CO1)C(Cl)(Cl)Cl` (configuration not stated) displayed a melting point of 92 to 95 °C.

The compound `COC(=O)c1cccc(-c2ccc(OC)c(OC3CCCC3)c2)c1` displayed a melting point of 85 to 87 °C.

For `C=CCN(C(=O)OCc1ccccc1)c1cc(F)c(-c2cccnc2)c(F)c1`, the melting point was 92 to 93 °C.

Compound `O=C(c1cc(C2=CC3CCC(C2)N3)ccn1)N(O)Cc1ccccc1` (configuration not stated) yielded a melting point of 95 to 100 °C.

Regarding `CCc1cc(-c2cccnc2)nn1-c1ccc(NCc2ccc(OCCCC#N)cc2)cc1`, the melting point was 131 to 132 °C.

Take `FC1CCC2C3Cc4ccccc4C2(CCN3)C1` (configuration not stated): the melting point was in the range of 93 to 97 °C.

Take `O=C(CC1(O)CCC1)N[C@H]1CC[C@H](CCN2CCN(c3nccc4c3OCC4)CC2)CC1`: the melting point turned out to be 155 °C.

With `CN(C)c1nc(=O)c2ccccc2n1Cc1ccc(F)cc1`, the melting point was in the range of 160 to 169 °C.

In turn, `CN(Cc1cc2c(=O)c(C(=O)NCc3ccc(Cl)cc3)cn(C)c2o1)CC(O)c1ccoc1` (configuration not stated) came in with a melting point of 93 to 97 °C.

As to `COc1cc(C)c(C(=O)c2c(Cl)cncc2C(F)(F)F)c(OC)c1OC`, the melting point lay within 75 to 77 °C.

For the compound `CCNc1nc(C)c(-c2ccnc(Nc3ccc(N4CCNCC4)cc3)n2)s1`, the melting point was in the range of 245 to 247 °C.

`CC(C)CCOc1c(-c2ccc(S(C)(=O)=O)cc2)cnn(C(C)(C)C)c1=O` returned a melting point of 138 to 139 °C.

For the compound `COC(=O)CCC#CCCC(=O)O`, the melting point lay within 71.5 to 72 °C.

Turning to `CN(C)CCc1c(C(=O)O)[nH]c2ccc(C[C@H]3COC(=O)N3)cc12`, the melting point turned out to be 230 °C.

As for `CCOC(=O)c1ccc(-c2coc(-c3cccc(C(F)(F)F)c3)n2)cc1`, the melting point is 132 to 133 °C.

Compound `CCC(C(=O)Nc1c(C)cccc1C)N1C(=O)c2ccccc2C1=O` (configuration not stated) had a melting point of 195 to 196 °C.

The compound `Clc1nc(Cl)c2sc(Cl)nc2n1` gave a melting point of 121 to 122 °C.

On to `C=C(c1ccc(OC)cc1)c1ccc(N2CCCC2)cc1`, for which the melting point lay within 159 to 162 °C.

As for `O=C(Nc1cccc2c1C(=O)c1c-2n[nH]c1-c1ccc(C(=O)N2CCCC2)s1)NN1CCOCC1`, the melting point is > 300 °C.

As for `CN1C(=O)[C@H](NC(=O)/C=C/c2cccc(Cl)c2)N=C(c2ccccc2)c2ccccc21`, the melting point was in the range of 229 to 231 °C.

For the compound `CCCCCC[C@H](C)Oc1ccc(-c2ccc(OC(=O)c3ccccc3)cc2)cc1`, the melting point turned out to be 84 °C.

The compound `COC(=O)C1=C(C)NC(C)=C(c2nc(CCl)no2)C1c1cccc([N+](=O)[O-])c1` (configuration not stated) gave a melting point of 200 to 202 °C.

As for `Cc1oc(-c2ccccc2)nc1C(O)c1cc2cc(Br)ccc2o1` (configuration not stated), the melting point is 152 to 154 °C.

The compound `CCC(C)N(C)C(=O)c1cc(-c2ccccc2F)c2sccc2c1` (configuration not stated) yielded a melting point of 89 °C.

In turn, `O=C(O)Cc1c(-c2ccccc2)nn(C2CCCCC2)c1-c1ccccc1` yielded a melting point of 229 to 231 °C.

Turning to `COC(=O)c1sc(C)c2[nH]c(C(F)(F)C(F)(F)C(F)(F)F)nc12`, the melting point lay in the range of 147 to 148 °C.

With `Cc1nc(-c2ccc(S(C)(=O)=O)cc2)c(-c2ccc(F)cc2)s1`, the melting point was 134 to 135 °C.

In turn, `C=C(C)Cc1c(C)c(NC(C)=O)c(C)c(C)c1O` gave a melting point of 209 to 210 °C.

For `O=C(O)Cc1ccccc1N1CCOCC1`, the melting point is 128 °C.

`CCCCCCCCCCCCCCCCCC(=O)c1ccc(C(=O)O)c(Cl)c1` gave a melting point of 96 to 102 °C.

`CCOC(=O)CN1C(=O)SC(Cc2ccc(N3CCC(NCC(O)c4ccc(O)c(NS(C)(=O)=O)c4)CC3)cc2)C1=O` (configuration not stated) yielded a melting point of 153 to 155 °C.

In turn, `CC1(C)CCC(C)(C)c2cc(CCCSN3C=CC=NC3)c(/C=C/c3ccc(C(=O)O)cc3)cc21` displayed a melting point of 177 to 178 °C.

For `O=C1N(CC2CCCO2)c2ccccc2C12COc1cc3c(cc12)OCCCO3` (configuration not stated), the melting point lay within 134 to 138 °C.

In the case of `CCOC(=O)C1(c2ccccc2)CCN(C2=CCC(C#N)(c3ccccn3)CC2)CC1` (configuration not stated), the melting point was 160 °C.

The compound `O=C(O)c1ccc(CC2(C(=O)O)CCCN2C(=O)Nc2cc(Cl)cc(Cl)c2)cc1` (configuration not stated) showed a melting point of 145 °C.

In turn, `O=C(NS(=O)(=O)NCC1CCCO1)OCc1ccccc1` (configuration not stated) came in with a melting point of 96 to 97 °C.

On to `COc1cc(OC)c2c(=O)[nH]c(-c3ccc(OCCO)c(-c4cccc(S(C)=O)c4)n3)nc2c1` (configuration not stated), for which the melting point is 272 to 273 °C.

In turn, `CN1CCC(=C2c3cc(C#N)ccc3C=Cn3cccc32)CC1` displayed a melting point of 156 to 159 °C.

In turn, `COc1ccc(C(=O)c2c(-c3ccc(OC)cc3)sc3ccccc23)cc1` returned a melting point of 124 to 126 °C.

Take `CCc1ncnc(N[C@H]2CC[C@@H](C(C)(C)O)CC2)c1Cl`: the melting point is 75 to 76 °C.

`O=C(CCc1ccccc1)CN1C(=O)CC1S(=O)Cc1ccccc1` (configuration not stated) gave a melting point of 110 to 111 °C.

On to `Nc1nc(-n2cc(C(=O)O)c(=O)c3cc(F)c(F)c(Br)c32)c(F)cc1F`, for which the melting point was in the range of 272 to 278 °C.

Compound `COC(=O)C1=C(C)NC(C)=C(C(=O)OCCCCCCOc2cc(-c3ccccc3)[nH]n2)C1c1cccc([N+](=O)[O-])c1` (configuration not stated) came in with a melting point of 151 to 153 °C.

In the case of `FC(F)c1cccc(C=C2c3ccccc3CCc3ccccc32)c1`, the melting point came to 92.5 °C.

`CCOC(=O)c1c(Oc2ccc(Cl)cc2[N+](=O)[O-])c2ccccc2n1C` had a melting point of 133 to 134 °C.

In turn, `CN(C(=O)On1ccnn1)c1ccccc1` returned a melting point of 105 to 106 °C.

The compound `Cc1nc(OCCO)c(C#N)c(N2CCc3ccccc3CC2)n1` had a melting point of 86.7 to 92.3 °C.

Compound `CCOC(=O)Cn1cc(CC(=O)O)c2ccccc21` registered a melting point of 138 °C.

Regarding `CN(Cc1cc(C(F)(F)F)cc(C(F)(F)F)c1)C(=O)c1nc(O)ncc1-c1ccccc1`, the melting point fell in the range of 218 to 220 °C.

`CCCC(=O)Nc1n[nH]c2c([N+](=O)[O-])c(Br)c([N+](=O)[O-])cc12` returned a melting point of 260 °C.

As to `CCN1C(=O)C(=CC=C2C=C(c3ccccc3)C=C3N2c2ccccc2C3(C)C)C(=O)N(CC)C1=S`, the melting point is > 310 °C.

The compound `CCCCCCCc1ccc(OC(=O)c2cc3c(s2)CC(CCCCC)C3)cc1` (configuration not stated) displayed a melting point of 64 °C.

In turn, `CCc1c(Sc2cc(C)cc(C)c2)n(CC2=CCC(CO)C2)c(=O)[nH]c1=O` (configuration not stated) displayed a melting point of 57 to 60 °C.

Compound `CC(C)(C)C1(c2ccc(C(=O)O)cc2)OCCO1` showed a melting point of 214 to 216 °C.

With `CC12CCC3c4cc(C=O)c(O)cc4CCC3C1CCC2O` (configuration not stated), the melting point was in the range of 219 to 221 °C.
